Assay results from patent US20240374566A1, “METHODS AND COMPOSITIONS FOR THE TREATMENT OF CANCER” (Lankenau Institute for Medical Resesarch, priority 2017, published 2024).
Entries after “also recorded” stand apart in the source; their conditions may differ.

Tests used:
[1] = test system: allogeneic mouse concepti; conditions: in vivo; cited from earlier work
[2] = mouse, rat and dog; cited from earlier work
[3] = test system: human xenograft tumor; conditions: mice; cited from earlier work
[4] = test system: lymphoma, lung cancer and sarcoma; conditions: cited from earlier work
[5] = test system: 4T1 pulmonary metastases; test: Neovascular density (anti-Cav1 staining) within 4T1 lung metastases after treatment; format: in vivo, mouse
Method: Pulmonary metastasis studies with the 4T1 mouse mammary carcinoma-derived cell line (Aslakson et al. (1992) Cancer Res., 52:1399-1405) were carried out by injecting 1×10^4 cells in 50 μl serum free medium into the number 4 mammary fatpad to establish an orthotopic tumor which then spontaneously metastasized to the lungs. For visualization of the pulmonary metastasis burden, lungs were inflated with 15% India ink dye, washed, and bleached in Fekete's solution. For immunofluorescence detection of pulmonary metastasis vasculature, lungs were inflated with 50% OCT and frozen in OCT blocks followed by 4 μm sectioning using the CryoJane tape transfer system. Blood vessels within the metastatic nodules were visualized by fluorescence staining with rabbit anti-mouse Caveolin1 polyclonal antibody (Cat. #3238S, Cell Signaling Technology, Boston, MA). For quantitatively evaluating vessel density within the metastatic nodules, multiple fields were acquired per mouse lung on a Zeiss inverted microscope with 40× objective. The pixel density corresponding to the positive Cav1 signal per field was determined in Adobe Photoshop, and these values were then averaged to determine the overall mean value per mouse. For IDO1 inhibitor treatment studies, mice bearing established metastases at 3.5 weeks following 4T1 engraftment were administered 50 mg/kg epacadostat (ChemieTek; Indianapolis, IN) in 100 μl vehicle (3% N,N-dimethylacetamide, 10% 2-hydroxylpropyl-β-cyclodextrin) by oral gavage b.i.d. (twice daily) over 72 hours at which point the animals were euthanized for analysis. Positive control animals were administered a single intraperitoneal (i.p.) injection of 50 mg/kg cyclophosphamide (Baxter; Deefield, IL) in 100 μl sterile saline and euthanized 72 hours later for analysis. […]

[6] = test system: large, vascularized tumors; conditions: requires IFNγ receptor expression on normal host cells; cited from earlier work
[7] = test system: 4T1 lung metastases; test: Hypoxyprobe staining of hypoxic regions within 4T1 lung metastases; format: in vivo, mouse; conditions: epacadostat 50 mg/kg oral gavage b.i.d. over 72 hours
Method: For IDO1 inhibitor treatment studies looking at tumor hypoxia, mice bearing established metastases at 3.5 weeks following 4T1 engraftment were administered either 50 mg/kg epacadostat (ChemieTek; Indianapolis, IN) in 100 μl vehicle (3% N,N-dimethylacetamide, 10% 2-hydroxylpropyl-β-cyclodextrin) by oral gavage b.i.d. (twice daily) over 72 hours, or 400 mg/kg indoximod (Sigma-Aldrich; St. Louis, MO) in 100 μl vehicle (0.5% Tween 80/0.5% Methylcellulose v/v in water) by oral gavage b.i.d. (twice daily) over 72 hours.
For visualizing regions of hypoxia within 4T1 lung metastases, the Hypoxyprobe™ Green Kit (Hydroxyprobe, Inc.; Burlington, MA) was used as per the manufacturer's instructions. 1 hour prior to euthanasia, mice were injected intravenously with 60 mg/kg Hypoxyprobe™ (pimonidazole HCl). Lung sections were stained with the FITC-conjugated mouse IgG1 monoclonal antibody (4.3.11.3) provided by the supplier that specifically binds to protein adducts of pimonidazole.

[8] = test system: tumors; conditions: clinical study; cited from earlier work

## Cn1cc(C[C@H](N)C(=O)O)c2ccccc21 [1MT, 1-methyl-tryptophan]
[1]
  rejection of allogeneic mouse concepti: could elicit T cell-dependent rejection of allogeneic mouse concepti

## Cn1cc(-c2ccc3c(c2)CCN3C(=O)Cc2cccc(C(F)(F)F)c2)c2c(N)ncnc21 [GSK2606414]
[2]
  blood clearance: low to moderate
  oral bioavailability: good

## Cc1cccc(CC(=O)N2CCc3c2ccc(-c2cn(C)c4ncnc(N)c24)c3F)n1 [GSK2656157]
[2]
  blood clearance: low to moderate
  oral bioavailability: good
[3]
  human xenograft tumor growth: delay of various human xenograft tumor growths
  weight loss and effect on pancreatic insulin production: without significant weight loss and/or effect on pancreatic insulin production

## C=CC1=C(C)c2cc3[n-]c(cc4[n-]c(cc5nc(cc1n2)C(C)=C5C=C)c(C)c4CCC(=O)O)c(CCC(=O)O)c3C.[Zn+2] [ZnPPIX, zinc protoporphyrin IX]
[4]
  antitumor effect in mice: effective in reducing lymphoma, lung cancer and sarcoma

## O=P1(N(CCCl)CCCl)NCCCO1 (centres unmarked) [cyclophosphamide]
[5]; single i.p. injection of 50 mg/kg, evaluated 72 hours later, compared with the effect of epacadostat
  metastatic tumor neovascularization, positive control (in words): comparable
[6]
  tumor rejection: immune-dependent rejection of large, vascularized tumors

## NS(=O)(=O)NCCNc1nonc1C(=NO)Nc1ccc(F)c(Br)c1 [epacadostat]
[5]; 50 mg/kg oral gavage b.i.d. over 72 hours, established 4T1 pulmonary metastases 3.5 weeks after engraftment, P<0.01
  reduction in metastatic tumor neovascularization relative to vehicle alone: 3.2 fold
[5]; epacadostat 50 mg/kg oral gavage b.i.d. over 72 hours, established 4T1 pulmonary metastases
  metastatic tumor neovascularization relative to vehicle (in words): reduced level of neovascularization; also recorded: clear reduction in metastatic tumor neovascularization
[7]
  hypoxia in metastatic tumor (Hypoxyprobe staining) relative to vehicle: clear evidence of elevated hypoxia

## Cn1cc(C[C@@H](N)C(=O)O)c2ccccc21 [indoximod, 1-methyl-D-tryptophan]
[8]
  sensitization of tumors to salvage chemotherapy: appeared to sensitize tumors to salvage chemotherapy
